Results on one molecule are retold here after patent US8765188B2, “Composition for treating and/or preventing osteoporosis” (Taipei Medical University, priority 2011, dated 2014).

Marks after values point to notes of the source that are not given here.

For this test, the system named is ovariectomized rat model of osteoporosis. The test is described as follows: Bone histomorphometry of tibia trabecular bone with micro-CT. It counts as in vivo. The conditions noted are these: OVX rats, DVAB composition 0.2 g/kg, positive 0.1 mg/5 ml/kg ethinylestridiol, 20 weeks. As to the method: In an ovariectomized rat model of osteoporosis, rats were divided into sham (5 ml/kg ddH2O without ovariectomy) and ovariectomized (OVX) groups. The OVX rats were then subdivided into two groups orally treated with 5 ml/kg ddH2O (control group) and DVAB composition (0.2 g/kg) daily for 20 weeks. The positive group refers to rats receiving 0.1 mg/5 ml/kg of ethinylestridiol.
Biomechanical strength also was measured by three-point bending test of femur and compression test of vertebra. Furthermore, the tibia from rats was measured by cancellous bone histomorphometry with micro-CT. In this study, percentage of bone volume (BV/TV), trabecular thickness (Tb, Th), trabecular number (Tb, N), trabecular separation (Tb, Sp) and structure model index (SMI) were measured.

As to `C#C[C@]1(O)CC[C@H]2[C@@H]3CCc4cc(O)ccc4[C@H]3CC[C@@]21C` [Positive Control, ethinylestridiol], the BV/TV was 25.69 +/− 10.41* %, the SMI was 1.29 +/− 0.52^#, the Tb.N is on record as 0.0028 +/− 0.0010* 1/μm and the Tb.Sp was 255.99 +/− 94.24* μm. The Tb.Th is reported as 90.29 +/− 4.01 μm.
